Assay results as given in patent publication US11466020B2, “Compounds and compositions for inhibition and elimination of Zika infection and uses for same” (Cornell University, priority 2017, dated 2022).
Counter-ions that a name gives are not always drawn.

Columns and labels:
ZIKV MR766 = assay: Inhibition of ZIKV infection of hNPCs (high content screen / inhibitory curve, ZIKV E staining); assay type: cell-based, Zika virus; settings: for ZIKV infection of hNPCs compared to DMSO controls: 72 h after ZIKV (MR766) infection; for IC50: Zika virus, hNPCs, ZIKV MR766 MOI=0.125, compound added before infection, infection rate (ZIKV E+ cells), read-out: IC50 values of anti-ZIKV activity
Protocol: A high content chemical screen identifies compounds that inhibit ZIKV infection of hNPCs. To identify drugs that inhibit ZIKV infection, we screened the Prestwick library that includes 1120 FDA-approved drug and drug candidates, selected for known bioavailability and safety in humans. To perform the screen, hNPCs seeded in 384-well plates were treated with each compound from the library or vehicle control (DMSO) for 1 hour, followed by addition of ZIKV MR766 at a MOI=0.125. After two hour of inoculation with ZIKV, the virus-containing medium was replaced by fresh virus-free medium and compounds were replenished for each well (See Methods). After an additional three days of culture, cells were fixed and stained with antibodies against the ZIKV envelop protein (ZIKV E) and a cell proliferation marker Ki67 (FIG. 1A). The percentages of ZIKV E^+ cells, Ki67^+ cells and total cell number were quantified by an automated imaging and analysis system. A two dimensional analysis was performed to choose the primary hit compounds (FIG. 5A). The X-axis represents the fold change of total cell number, which was calculated by dividing the total cell number of the chemical-treated well by the average total cell number of DMSO-treated wells. The Y-axis represents the fold change of the percentage of ZIKV infected cells, which was calculated by dividing the percentage of cells expressing ZIKV E in each chemical-treated well by the average of the percentage of cells expressing ZIKV E from DMSO-treated wells. […] Based on the fold change of the percentage of ZIKV infection, the signal-to-basal (S/B) ratio is 4.2 and the coefficient of variation (CV) is 6.9%. The Z factor is 0.59 indicating a robust screening system.
hNPCs were plated on 96-well plates at 8.5×10^4/cm^2. After overnight incubation, hNPCs were infected with ZIKV (MR766 strain, MOI=0.125) for 2 h, and changed to virus-free medium. The cells were maintained in NPC medium with daily medium change. Three days later, the supernatant and cells were collected and used for assays. hESC-derived forebrain organoids were infected with ZIKV MR766 (5×10^5 PFU/ml) for 24 h. After removal of virus containing medium, forebrain organoids were maintained in forebrain organoid medium for an additional 3 or 17 days and then used for assays.
High-content Screen. hNPCs were dissociated and plated on Matrigel-coated 384-well plates for the chemical screen. […] DMSO was used as a negative control. ZIKV MR766 was added at MOI=0.125. After 2 hour infection, the supernatant was replaced with fresh medium and compounds from the same chemical library were added to the same wells. After an additional 3 days incubation, cells were fixed, stained with antibodies against ZIKV envelop protein (ZIKV E) and proliferation marker Ki67, and analyzed with the ImageXpress^MICRO Automated High-Content Analysis System. […] X-axis represents the fold change of total cell number, which was calculated by dividing the total cell number of the chemical treated well by the average of total cell number of DMSO treated wells. Y-axis represents the fold change of the percentage of ZIKV infection, which was calculated by dividing the percentage of ZIKV infection of the chemical treated well by the average of the percentage of ZIKV infection of DMSO treated wells. The compounds in which the fold change of total cell number >1 and the fold change of the percentage of ZIKV infection <20% were further evaluated. […]

ZIKV (FSS13025 strain) = assay: qRT-PCR of vRNA in human forebrain organoids treated 42 h or 48 h post-infection (FSS13025); assay type: cell-based, Zika virus; settings: HH added at 42 h or 48 h post-infection, additional 3 days
Protocol: Immunocytochemical analysis of D20+4 ZIKV-infected organoids treated with 15 μM AQ or DMSO or with mock infection (n=3). D20+4 organoids were stained for SOX2, ZIKV E and with DAPI to monitor the ZIKV infection rate. D20+4 organoids were also stained for Ki67, CAS3 and with DAPI to monitor the cell proliferation and apoptosis rate. […] Scale bars, 100 μm. (B) The expression dynamics of ZIKV vRNA (FSS13025 strain) in human forebrain organoids. qRT-PCR analysis to quantify the total and replicating (−) strand vRNA levels in the human forebrain organoids at different time points post-infection. […] (C) qRT-PCR analysis of human forebrain organoids that were treated with 25 μM HH or DMSO at 42 h or 48 h post-ZIKV (FSS13025 strain) infection and maintained for additional 3 days. p values were calculated by unpaired two-tailed Student's t-test. *p<0.05, **p<0.01 and ***p<0.001, if not mentioned specifically.
To further validate the effect of HH on ZIKV-infected brain organoids, we first monitored ZIKV vRNA expression dynamics in organoids using qRT-PCR analysis.
RNA Extraction and qRT-PCR. Total RNA of cultured cells and organs was extracted with RNeasy plus mini kit (Qiagen). vRNA from cell culture supernatant or mouse serum was extracted with QIAampe viral RNA mini kit (Qiagen). […] ZIKV vRNA levels were calculated using a standard curve generated using serial 10-fold dilutions of ZIKV vRNA.

Compound | ZIKV infection of hNPCs compared to DMSO controls (ZIKV MR766) | IC50 (ZIKV MR766) | total and replicating (-) ZIKV vRNA levels in forebrain organoids (ZIKV (FSS13025 strain))
CCN(CC)Cc1cc(Nc2ccnc3cc(Cl)ccc23)ccc1O [AQ, amodiaquine dihydrochloride dihydrate] | effectively inhibited ZIKV infection | 6 µM | 
CN1CCC2=C[C@H](O)[C@H]3OC(=O)c4cc5c(cc4[C@H]3[C@@H]21)OCO5 [HH, hippeastrine hydrobromide] | effectively inhibited ZIKV infection | 5.5 µM | significantly decreased
